In the NIST ThermoML archive (doi:10.1016/j.tca.2014.05.034):

Experiment: xn = mol fraction of the nth substance listed
Conditions: 100 kPa, Liquid; for kinematic viscosity: Capillary tube (Ostwald / Ubbelohde) method; for mass density: Pycnometric method

NCCN [ethane-1,2-diamine] + OCCOCCO
Conditions	kinematic viscosity, 298.15 K [m2/s]	kinematic viscosity, 303.15 K [m2/s]	kinematic viscosity, 308.15 K [m2/s]	mass density, 298.15 K [kg/m3]	mass density, 303.15 K [kg/m3]
x1 = 0.085	2.94e-05	2.32e-05	1.85e-05	1104.7	1101.3
x1 = 0.164	3.37e-05	2.62e-05	2.07e-05	1096.3	1092.8
x1 = 0.2376	3.68e-05	2.84e-05	2.22e-05	1087.5	1083.9
x1 = 0.3062	3.81e-05	2.92e-05	2.27e-05	1078.1	1074.5
x1 = 0.3705	3.7e-05	2.82e-05	2.19e-05	1068.3	1064.5
x1 = 0.4308	3.36e-05	2.57e-05	2e-05	1057.7	1053.8
x1 = 0.4874	2.87e-05	2.22e-05	1.74e-05	1046.5	1042.7
x1 = 0.5407	2.31e-05	1.8e-05	1.44e-05	1034.6	1030.8
x1 = 0.5909	1.81e-05	1.44e-05	1.15e-05	1022.5	1018.7
x1 = 0.6384	1.4e-05	1.13e-05	9.35e-06	1010.7	1006.8
x1 = 0.6834	1.06e-05	8.7e-06	7.27e-06	997.9	994
x1 = 0.7259	8.32e-06	6.95e-06	5.89e-06	986.3	982.6
x1 = 0.7663	6.39e-06	5.42e-06	4.66e-06	973.7	970.1
x1 = 0.8047	4.97e-06	4.27e-06	3.71e-06	961.5	957.5
x1 = 0.876	3.22e-06	2.84e-06	2.52e-06	938.1	934.4
x1 = 0.9408	2.23e-06	1.99e-06	1.8e-06	916.1	912.8
x1 = 1	1.56e-06	1.39e-06	1.27e-06	893.3	888.8
